Data on 25 compounds can be found in ChEMBL document CHEMBL4813923, “Design, synthesis and biological evaluation of novel scaffold benzo[4,5]imidazo [1,2-a]pyrazin-1-amine: Towards adenosine A2A receptor (A2A AR) antagonist” (Eur J Med Chem, 2021).

The target of experiment [1] is T1, Adenosine receptor A1 (Homo sapiens, UniProt P30542).
T1 sequence (P30542 whole entry): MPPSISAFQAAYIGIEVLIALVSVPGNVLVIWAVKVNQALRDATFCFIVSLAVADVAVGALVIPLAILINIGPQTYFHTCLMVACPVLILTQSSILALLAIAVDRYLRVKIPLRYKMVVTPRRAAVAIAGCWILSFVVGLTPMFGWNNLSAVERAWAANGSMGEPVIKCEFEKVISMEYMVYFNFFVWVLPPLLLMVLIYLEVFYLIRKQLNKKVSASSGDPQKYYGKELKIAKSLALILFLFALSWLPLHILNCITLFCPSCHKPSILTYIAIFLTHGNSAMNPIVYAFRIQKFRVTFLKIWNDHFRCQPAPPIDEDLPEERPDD
The experiment can be described thus: Displacement of [3H]DPCPX from human adenosine A1 receptor expressed in CHO-K1 cell membrane preincubated for 5 mins followed measured after 50 mins by radioligand competition binding assay. It counts as cell membranes. In general terms: In a radioligand displacement assay an active substance lowers the binding of a labelled ligand.

Experiment [2] has as its target Adenosine receptor A2a (Homo sapiens, UniProt P29274). In words: Displacement of [3H]-ZM241385 from human recombinant A2A receptor expressed in human HEK293 cell membrane preincubated for 5 mins and measured after 1.5 hrs by radioligand competition binding assay. The format is cell membranes.

Adenosine receptor A2a, sequence (P29274 whole entry): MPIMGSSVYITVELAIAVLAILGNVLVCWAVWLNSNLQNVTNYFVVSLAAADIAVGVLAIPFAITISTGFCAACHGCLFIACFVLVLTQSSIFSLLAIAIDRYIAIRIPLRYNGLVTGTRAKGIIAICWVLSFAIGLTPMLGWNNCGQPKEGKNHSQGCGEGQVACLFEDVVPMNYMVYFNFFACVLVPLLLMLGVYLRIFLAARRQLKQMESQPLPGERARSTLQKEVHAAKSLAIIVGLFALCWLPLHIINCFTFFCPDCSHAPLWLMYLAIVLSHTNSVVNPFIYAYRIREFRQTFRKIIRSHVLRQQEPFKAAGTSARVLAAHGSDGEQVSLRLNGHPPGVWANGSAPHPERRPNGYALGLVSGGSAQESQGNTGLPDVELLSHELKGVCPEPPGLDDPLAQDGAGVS

Take `Cc1ccc(-c2cn3c(nc4ccccc43)c(N)n2)cc1`: the IC50 – broadly, the concentration at which inhibition is half-maximal – worked out at 0.0639 µM in experiment [1] and 0.0144 µM in experiment [2].
With `COc1cccc(-c2cn3c(nc4ccccc43)c(N)n2)c1`, the IC50 came out at 0.0958 µM in experiment [1] and 0.0101 µM in experiment [2].
In the case of `N#Cc1ccc(-c2cn3c(nc4ccccc43)c(N)n2)cc1`, the IC50 in experiment [2] stood at 0.0744 µM.
With `Nc1nc(C2CCN(CC(=O)N3CCOCC3)CC2)cn2c1nc1ccccc12`, the IC50 in experiment [2] was over 10 µM.
`Nc1nc(Cc2ccccc2)cn2c1nc1ccccc12` gave a 50% inhibitory concentration (IC50) in experiment [1] of 0.733 µM.
Regarding `COc1ccccc1-c1cn2c(nc3ccccc32)c(N)n1`, in experiment [2], the IC50 is 0.0831 µM.
Turning to `Cc1c(-c2ccccc2)nc(N)c2nc3ccccc3n12`, the half-inhibitory concentration (IC50) in experiment [2] is 0.114 µM.
In the case of `Nc1nc(-c2ccccc2)cn2c1nc1ccccc12`, the IC50 in experiment [2] came out at 0.0465 µM.
In the case of `Nc1nc(-c2ccc([N+](=O)[O-])cc2)cn2c1nc1ccccc12`, the IC50 in experiment [2] amounted to 0.0719 µM.
`Nc1nc(-c2cccc(Br)c2)cn2c1nc1ccccc12` registered an IC50 in experiment [1] of 0.0921 µM.
As for `Nc1nc(-c2ccc(C(F)(F)F)cc2)cn2c1nc1ccccc12`, in experiment [2], the IC50 is 0.0265 µM.
For `Nc1nc(CO)cn2c1nc1ccccc12`, the IC50 in experiment [2] worked out at 0.149 µM.
For `CC(=O)Nc1cccc(-c2cn3c(nc4ccccc43)c(N)n2)c1`, the IC50 in experiment [1] is 0.017 µM; in experiment [2] it was 0.0486 µM.
On to `Nc1nc(C2CCNCC2)cn2c1nc1ccccc12`, for which the half-inhibitory concentration (IC50) in experiment [2] is over 10 µM.
The same measure, in the same setting: under `Nc1nc(-c2ccc(Cl)cc2)cn2c1nc1ccccc12` stands 0.0354 µM; under `Nc1nc(-c2ccc(Br)cc2)cn2c1nc1ccccc12`, 0.0384 µM.
In experiment [1], `COc1cccc(-c2cn3c(nc4cc(F)c(F)cc43)c(N)n2)c1` returned an IC50 of 0.46 µM.
Consider `Nc1nc(-c2ccc(OC(F)(F)F)cc2)cn2c1nc1ccccc12`, for which the IC50 in experiment [2] was determined as 0.131 µM.
Same read-out and setting: under `COCCN1CCC(c2cn3c(nc4ccccc43)c(N)n2)CC1` stands over 10 µM.
Regarding `Nc1nc(-c2ccco2)cn2c1nc1ccccc12`, the values for the IC50 in experiment [1] and in experiment [2] were 0.0063 µM and 0.0326 µM, respectively.
In the case of `CC(=O)Nc1ccc(-c2cn3c(nc4ccccc43)c(N)n2)cc1`, in experiment [2], the IC50 was found to be 0.312 µM.
In the case of `CC(C)(C)c1ccc(-c2cn3c(nc4ccccc43)c(N)n2)cc1`, the half-maximal inhibitory concentration (IC50) in experiment [2] turned out to be 0.033 µM.
Turning to `Nc1nc(-c2ccc(F)cc2F)cn2c1nc1ccccc12`, the IC50 in experiment [1] amounted to 0.0044 µM; in experiment [2], 0.0337 µM.
For the compound `COc1ccc(-c2cn3c(nc4ccccc43)c(N)n2)cc1`, in experiment [2], the IC50 was found to be 0.0512 µM.
For `Nc1nc(-c2ccc(O)cc2)cn2c1nc1ccccc12`, the IC50 in experiment [2] stood at 0.0813 µM.
